Legend:
Assay in all cases: kinase selectivity panel
Type in all cases: biochemical
Axl = target: T1, Axl (Homo sapiens, UniProt P30530); settings: read-out: percentage of control activity (POC), Axl
T1 construct: purchased Eurofins Pharma Discovery Services (KinaseProfiler; Cerep BioPrint panel)
T1 sequence (P30530 26-894): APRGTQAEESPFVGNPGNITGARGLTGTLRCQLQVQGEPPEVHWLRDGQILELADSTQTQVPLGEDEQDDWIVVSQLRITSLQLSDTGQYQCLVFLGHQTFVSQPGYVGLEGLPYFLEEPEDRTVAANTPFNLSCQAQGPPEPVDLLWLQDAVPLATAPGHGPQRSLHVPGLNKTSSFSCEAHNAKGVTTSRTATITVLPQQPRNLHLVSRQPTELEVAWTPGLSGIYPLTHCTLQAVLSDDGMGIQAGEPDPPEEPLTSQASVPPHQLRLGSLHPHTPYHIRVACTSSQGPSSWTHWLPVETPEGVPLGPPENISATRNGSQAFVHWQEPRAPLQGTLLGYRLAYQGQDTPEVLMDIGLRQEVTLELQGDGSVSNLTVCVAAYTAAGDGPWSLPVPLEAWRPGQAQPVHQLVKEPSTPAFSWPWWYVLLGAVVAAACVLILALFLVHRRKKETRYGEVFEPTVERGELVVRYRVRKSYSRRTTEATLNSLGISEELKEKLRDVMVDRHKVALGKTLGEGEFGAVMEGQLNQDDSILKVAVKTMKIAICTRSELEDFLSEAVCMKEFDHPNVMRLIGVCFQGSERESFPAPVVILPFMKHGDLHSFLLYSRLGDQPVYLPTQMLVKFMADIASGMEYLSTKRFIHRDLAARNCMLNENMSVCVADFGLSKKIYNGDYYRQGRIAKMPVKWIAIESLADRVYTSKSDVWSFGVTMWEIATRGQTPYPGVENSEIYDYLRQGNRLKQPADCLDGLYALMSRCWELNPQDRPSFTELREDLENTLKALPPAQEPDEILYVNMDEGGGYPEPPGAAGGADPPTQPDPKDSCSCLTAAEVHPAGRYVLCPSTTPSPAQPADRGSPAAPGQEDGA
Procedure: (§1) Kinase selectivity was evaluated at Eurofins Pharma Discovery Services using a selection of 125 representative kinases tested at a concentration of 10 μM in duplicate (S3 Table). IC50 values for selected activities were further characterized at 9 duplicate concentrations. DNA-PK activity was determined at the SelectScreen® Biochemical kinase Profiling Service of Thermo Fisher Scientific.

Fms = target: T2, Fms (Homo sapiens, UniProt P07333); settings: for remaining activity at 10 µM: read-out: percentage of control activity (POC), Fms
T2 construct: purchased Eurofins Pharma Discovery Services (KinaseProfiler; Cerep BioPrint panel)
Procedure: as §1

IKKα = target: T3, IKKα (Homo sapiens, UniProt O15111); settings: read-out: percentage of control activity (POC), IKKα
T3 construct: purchased Eurofins Pharma Discovery Services (KinaseProfiler; Cerep BioPrint panel)
T3 sequence (O15111 1-745): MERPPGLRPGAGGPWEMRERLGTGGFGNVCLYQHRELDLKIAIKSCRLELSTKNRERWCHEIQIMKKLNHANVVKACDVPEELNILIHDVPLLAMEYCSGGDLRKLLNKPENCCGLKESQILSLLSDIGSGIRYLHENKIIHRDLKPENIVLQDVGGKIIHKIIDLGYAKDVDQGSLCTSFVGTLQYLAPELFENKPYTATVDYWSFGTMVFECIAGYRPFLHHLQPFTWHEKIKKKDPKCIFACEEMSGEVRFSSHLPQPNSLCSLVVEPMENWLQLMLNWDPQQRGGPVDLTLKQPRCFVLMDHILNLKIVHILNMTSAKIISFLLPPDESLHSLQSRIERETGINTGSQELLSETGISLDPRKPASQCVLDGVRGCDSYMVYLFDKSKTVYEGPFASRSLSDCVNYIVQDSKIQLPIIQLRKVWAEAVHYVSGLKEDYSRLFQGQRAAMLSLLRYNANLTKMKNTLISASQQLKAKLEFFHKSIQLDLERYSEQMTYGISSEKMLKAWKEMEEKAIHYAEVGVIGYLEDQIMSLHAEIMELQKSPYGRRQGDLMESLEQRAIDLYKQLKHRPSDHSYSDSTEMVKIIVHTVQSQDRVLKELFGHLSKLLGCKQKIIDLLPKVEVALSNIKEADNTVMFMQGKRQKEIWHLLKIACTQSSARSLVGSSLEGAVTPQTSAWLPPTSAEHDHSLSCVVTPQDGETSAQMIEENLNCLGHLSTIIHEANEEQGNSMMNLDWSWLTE
Procedure: as §1

SAPK3 = target: T4, SAPK3 (Homo sapiens, UniProt P53778); settings: read-out: percentage of control activity (POC), SAPK3
T4 construct: purchased Eurofins Pharma Discovery Services (KinaseProfiler; Cerep BioPrint panel)
T4 sequence (P53778 1-367): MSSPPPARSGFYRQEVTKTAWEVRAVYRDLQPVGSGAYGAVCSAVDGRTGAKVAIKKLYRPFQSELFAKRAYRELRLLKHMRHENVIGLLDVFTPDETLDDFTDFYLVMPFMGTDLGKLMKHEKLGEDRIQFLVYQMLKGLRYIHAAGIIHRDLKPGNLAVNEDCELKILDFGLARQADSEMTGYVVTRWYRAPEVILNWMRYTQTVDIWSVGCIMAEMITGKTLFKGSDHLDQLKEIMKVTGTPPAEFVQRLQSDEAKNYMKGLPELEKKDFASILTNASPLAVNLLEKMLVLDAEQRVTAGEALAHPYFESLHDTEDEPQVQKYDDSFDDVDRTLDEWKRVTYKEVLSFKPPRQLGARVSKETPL
Procedure: as §1

AMPKα1 = target: T5, AMPKα1 (Homo sapiens, UniProt Q13131); settings: read-out: percentage of control activity (POC), AMPKα1
T5 construct: purchased Eurofins Pharma Discovery Services (KinaseProfiler; Cerep BioPrint panel)
Procedure: as §1

PRAK = target: T6, PRAK (Homo sapiens, UniProt Q8IW41); settings: read-out: percentage of control activity (POC), PRAK
T6 construct: purchased Eurofins Pharma Discovery Services (KinaseProfiler; Cerep BioPrint panel)
T6 sequence (Q8IW41 1-473): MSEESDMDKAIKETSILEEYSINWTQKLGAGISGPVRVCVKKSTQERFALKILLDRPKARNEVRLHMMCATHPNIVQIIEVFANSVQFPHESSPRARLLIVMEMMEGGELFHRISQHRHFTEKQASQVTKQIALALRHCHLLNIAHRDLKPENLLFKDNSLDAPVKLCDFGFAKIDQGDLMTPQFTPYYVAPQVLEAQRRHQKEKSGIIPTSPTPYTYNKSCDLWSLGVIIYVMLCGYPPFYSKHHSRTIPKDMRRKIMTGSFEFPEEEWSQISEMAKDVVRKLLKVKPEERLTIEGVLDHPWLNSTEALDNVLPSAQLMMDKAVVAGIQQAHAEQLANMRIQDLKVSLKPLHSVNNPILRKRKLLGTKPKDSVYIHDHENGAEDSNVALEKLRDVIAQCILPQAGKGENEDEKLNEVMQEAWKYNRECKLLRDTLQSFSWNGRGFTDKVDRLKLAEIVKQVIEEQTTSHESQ
Procedure: as §1

PKCθ = target: T7, PKCθ (Homo sapiens, UniProt Q04759); settings: read-out: percentage of control activity (POC), PKCθ
T7 construct: purchased Eurofins Pharma Discovery Services (KinaseProfiler; Cerep BioPrint panel)
Procedure: as §1

T7 sequence (Q04759 whole entry): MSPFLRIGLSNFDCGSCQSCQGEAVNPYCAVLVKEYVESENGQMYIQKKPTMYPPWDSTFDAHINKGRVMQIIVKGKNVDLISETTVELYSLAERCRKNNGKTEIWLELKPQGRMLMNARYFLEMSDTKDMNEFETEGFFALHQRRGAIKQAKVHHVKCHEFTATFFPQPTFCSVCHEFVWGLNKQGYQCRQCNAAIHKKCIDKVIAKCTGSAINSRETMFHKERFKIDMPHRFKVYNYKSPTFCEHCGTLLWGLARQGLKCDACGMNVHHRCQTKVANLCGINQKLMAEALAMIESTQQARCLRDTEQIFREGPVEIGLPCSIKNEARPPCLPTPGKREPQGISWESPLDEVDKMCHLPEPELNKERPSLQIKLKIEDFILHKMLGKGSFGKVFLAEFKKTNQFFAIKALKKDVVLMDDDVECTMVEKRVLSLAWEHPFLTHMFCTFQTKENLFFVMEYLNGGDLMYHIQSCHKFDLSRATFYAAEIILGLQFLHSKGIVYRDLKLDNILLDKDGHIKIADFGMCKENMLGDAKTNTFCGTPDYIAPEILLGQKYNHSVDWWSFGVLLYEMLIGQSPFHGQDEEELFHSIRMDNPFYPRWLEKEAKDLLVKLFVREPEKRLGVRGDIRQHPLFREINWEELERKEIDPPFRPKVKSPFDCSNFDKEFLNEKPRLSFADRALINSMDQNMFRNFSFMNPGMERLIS
T5 sequence (Q13131 whole entry): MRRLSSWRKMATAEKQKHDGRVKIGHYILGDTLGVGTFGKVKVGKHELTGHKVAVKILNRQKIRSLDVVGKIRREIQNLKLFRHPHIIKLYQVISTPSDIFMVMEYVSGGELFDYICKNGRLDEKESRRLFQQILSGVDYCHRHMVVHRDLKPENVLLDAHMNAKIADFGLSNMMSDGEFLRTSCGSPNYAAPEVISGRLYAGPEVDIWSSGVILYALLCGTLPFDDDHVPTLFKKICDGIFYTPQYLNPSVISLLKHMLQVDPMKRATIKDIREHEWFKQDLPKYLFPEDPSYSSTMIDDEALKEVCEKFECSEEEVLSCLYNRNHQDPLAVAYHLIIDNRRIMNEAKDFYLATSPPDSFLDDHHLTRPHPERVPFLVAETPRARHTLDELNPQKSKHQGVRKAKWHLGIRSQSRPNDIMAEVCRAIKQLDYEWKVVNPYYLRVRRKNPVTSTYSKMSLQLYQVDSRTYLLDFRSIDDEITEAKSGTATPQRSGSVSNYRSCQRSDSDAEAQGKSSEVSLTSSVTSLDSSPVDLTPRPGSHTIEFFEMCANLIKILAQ
T5 sequence (Q9Y478 whole entry partner): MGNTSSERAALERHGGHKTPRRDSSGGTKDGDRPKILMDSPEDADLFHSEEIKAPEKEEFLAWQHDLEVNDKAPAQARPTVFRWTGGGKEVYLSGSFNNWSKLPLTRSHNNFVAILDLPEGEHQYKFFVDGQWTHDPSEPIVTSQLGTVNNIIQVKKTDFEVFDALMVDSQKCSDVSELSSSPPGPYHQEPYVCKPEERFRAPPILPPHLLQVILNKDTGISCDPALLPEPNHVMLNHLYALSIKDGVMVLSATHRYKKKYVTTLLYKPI
T5 sequence (P54619 whole entry partner): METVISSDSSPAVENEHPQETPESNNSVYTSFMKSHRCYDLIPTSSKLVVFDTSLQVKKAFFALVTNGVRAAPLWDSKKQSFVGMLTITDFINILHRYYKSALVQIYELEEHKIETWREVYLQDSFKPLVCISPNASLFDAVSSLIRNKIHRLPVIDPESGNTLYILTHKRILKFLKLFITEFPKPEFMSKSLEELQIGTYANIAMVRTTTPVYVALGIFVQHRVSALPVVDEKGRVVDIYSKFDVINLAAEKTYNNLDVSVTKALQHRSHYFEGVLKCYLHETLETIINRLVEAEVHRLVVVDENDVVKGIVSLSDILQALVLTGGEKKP
T2 sequence (P07333 20-972): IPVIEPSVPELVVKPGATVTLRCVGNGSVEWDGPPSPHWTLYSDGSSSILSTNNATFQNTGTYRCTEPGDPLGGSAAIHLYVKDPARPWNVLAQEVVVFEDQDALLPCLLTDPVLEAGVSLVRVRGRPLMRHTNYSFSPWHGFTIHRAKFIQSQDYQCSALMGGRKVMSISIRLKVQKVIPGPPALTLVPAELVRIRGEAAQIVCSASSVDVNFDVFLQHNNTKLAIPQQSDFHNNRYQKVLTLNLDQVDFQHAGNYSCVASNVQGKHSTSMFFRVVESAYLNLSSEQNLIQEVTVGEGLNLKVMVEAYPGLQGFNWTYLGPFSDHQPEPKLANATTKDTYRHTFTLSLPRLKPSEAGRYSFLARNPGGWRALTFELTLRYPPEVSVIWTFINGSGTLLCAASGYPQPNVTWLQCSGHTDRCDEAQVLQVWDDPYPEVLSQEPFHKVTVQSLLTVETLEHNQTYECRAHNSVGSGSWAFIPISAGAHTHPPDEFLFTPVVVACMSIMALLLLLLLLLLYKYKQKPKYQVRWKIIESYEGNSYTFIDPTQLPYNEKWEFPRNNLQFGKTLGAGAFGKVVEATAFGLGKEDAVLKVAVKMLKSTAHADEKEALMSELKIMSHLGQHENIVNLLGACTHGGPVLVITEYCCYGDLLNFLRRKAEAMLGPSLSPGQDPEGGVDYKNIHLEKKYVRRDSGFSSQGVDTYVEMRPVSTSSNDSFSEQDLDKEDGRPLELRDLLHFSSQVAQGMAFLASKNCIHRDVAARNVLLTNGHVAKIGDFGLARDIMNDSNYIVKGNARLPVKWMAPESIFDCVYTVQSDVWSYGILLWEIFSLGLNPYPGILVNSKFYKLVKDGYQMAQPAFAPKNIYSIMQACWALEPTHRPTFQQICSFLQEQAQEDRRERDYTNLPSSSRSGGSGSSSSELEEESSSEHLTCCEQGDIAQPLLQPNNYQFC

SMILES | remaining activity at 10 µM (Axl) | remaining activity at 10 µM (Fms) | remaining activity at 10 µM (IKKα) | remaining activity at 10 µM (SAPK3) | remaining activity at 10 µM (AMPKα1) | remaining activity at 10 µM (PRAK) | remaining activity at 10 µM (PKCθ) | inhibition at 10 µM (Fms)
CC(C)(C)N1CCC(c2cc(-c3ccc(F)cc3Cl)c3cc[n+]([O-])c(-c4c(Cl)cccc4Cl)c3n2)CC1 [compound 2] | 98% | 100% | 102% | 75% | 105% | 107% | 91% | 
Cc1ccc(C(=O)NCC2CC2)cc1-c1ccc2c(c1)NC(=O)C21CCCC1 [compound 3] | 88% | 47% | 101% | 78% | 98% | 65% | 97% | 53%
Cn1cc(-c2cccc(-c3nc(C(=O)NC4C5CC6CC4CC(O)(C6)C5)c(N)nc3N)c2)cn1 (stereo not shown) [compound 4] | 59% | 63% | 100% | 92% | 85% | 83% | 84% | 
CS(=O)(=O)N1CCN(c2ccc(Nc3ncc(C(N)=O)c(NC4CC4)n3)cc2)CC1 [compound 5] | 12% | -2% | 1% | 64% | -1% | 85% | 26% | 
COc1c(NC(=O)c2ccc(C)c(-c3nnc4c(NCC(C)(C)C)nccn34)c2)cc(C(C)(C)C)cc1NS(C)(=O)=O [compound 7, reference compound] | 91% | 26% | 135% | 67% | 114% | 56% | 98% | 74%
